Data reported in publication PMC10528299, “Targeting FAK/PYK2 with SJP1602 for Anti-Tumor Activity in Triple-Negative Breast Cancer” (Current Issues in Molecular Biology, 2023).

Tests used:
Test in all cases: Eurofins kinase profiling
Type in all cases: biochemical
Tie2 (h) = target: T1, Tie2 (h) (Homo sapiens, UniProt Q02763); details: read-out: residual kinase activity Tie2 (h)
T1 construct: purchased Eurofins KinaseProfiler
Outline: (§1)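 Protein kinases were run in the KinaseProfiler radiometric format with the test compound at 1 µM, and activity was measured by incorporation of radiolabeled phosphate. The assays followed the provider's standard protocols as part of a 110-kinase panel.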

ALK(h) = target: T2, ALK(h) (Homo sapiens, UniProt Q9UM73); details: for remaining activity at 1 µM: read-out: residual kinase activity ALK(h)
T2 construct: purchased Eurofins KinaseProfiler
Outline: as §1

Lck(h) = target: T3, Lck(h) (Homo sapiens, UniProt P06239); details: read-out: residual kinase activity Lck(h)
T3 construct: purchased Eurofins KinaseProfiler
Outline: as §1

TrkA(h) = target: T4, TrkA(h) (Homo sapiens, UniProt P04629); details: read-out: residual kinase activity TrkA(h)
T4 construct: purchased Eurofins KinaseProfiler
Outline: as §1

B-Raf(h) = target: T5, B-Raf(h) (Homo sapiens, UniProt P15056); details: read-out: residual kinase activity B-Raf(h)
T5 construct: purchased Eurofins KinaseProfiler
Outline: as §1

CDK5/p35(h) = target: T6, CDK5/p35(h) (Homo sapiens, UniProt Q00535); details: read-out: residual kinase activity CDK5/p35(h)
T6 construct: purchased Eurofins KinaseProfiler
Outline: as §1

MEK1(h) = target: T7, MEK1(h) (Homo sapiens, UniProt Q02750); details: read-out: residual kinase activity MEK1(h)
T7 construct: purchased Eurofins KinaseProfiler
Outline: as §1

ATM(h) = target: T8, ATM(h) (Homo sapiens, UniProt Q13315); details: read-out: residual kinase activity ATM(h)
T8 construct: purchased Eurofins KinaseProfiler
Outline: as §1

PKC μ(h) = target: T9, PKC μ(h) (Homo sapiens, UniProt Q15139); details: read-out: residual kinase activity PKC μ(h)
T9 construct: purchased Eurofins KinaseProfiler
T9 sequence (Q15139 1-912): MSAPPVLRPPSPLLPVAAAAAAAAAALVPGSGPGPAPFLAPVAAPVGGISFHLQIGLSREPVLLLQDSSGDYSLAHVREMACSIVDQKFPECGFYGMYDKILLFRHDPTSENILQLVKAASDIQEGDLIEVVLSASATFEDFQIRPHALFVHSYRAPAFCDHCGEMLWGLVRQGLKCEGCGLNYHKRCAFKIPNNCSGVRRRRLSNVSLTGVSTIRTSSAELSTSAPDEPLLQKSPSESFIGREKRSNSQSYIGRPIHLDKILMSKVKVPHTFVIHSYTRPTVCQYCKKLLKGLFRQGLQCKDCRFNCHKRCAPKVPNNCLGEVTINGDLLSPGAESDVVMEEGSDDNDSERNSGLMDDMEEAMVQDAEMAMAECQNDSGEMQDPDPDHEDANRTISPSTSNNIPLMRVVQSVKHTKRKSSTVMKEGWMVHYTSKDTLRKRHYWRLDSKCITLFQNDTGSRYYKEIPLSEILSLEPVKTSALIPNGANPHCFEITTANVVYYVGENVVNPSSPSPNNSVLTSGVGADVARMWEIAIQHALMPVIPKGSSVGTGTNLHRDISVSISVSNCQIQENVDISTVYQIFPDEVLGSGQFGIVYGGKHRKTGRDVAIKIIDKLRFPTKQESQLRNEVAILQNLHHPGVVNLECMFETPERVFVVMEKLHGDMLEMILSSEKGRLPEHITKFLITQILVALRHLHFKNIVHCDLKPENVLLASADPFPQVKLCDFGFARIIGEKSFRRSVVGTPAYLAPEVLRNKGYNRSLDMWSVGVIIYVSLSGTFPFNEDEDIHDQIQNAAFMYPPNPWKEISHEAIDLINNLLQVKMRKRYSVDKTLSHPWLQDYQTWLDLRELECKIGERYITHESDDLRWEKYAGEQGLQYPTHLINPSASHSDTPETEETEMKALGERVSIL
Outline: as §1

Bmx(h) = target: T10, Bmx(h) (Homo sapiens, UniProt P51813); details: read-out: residual kinase activity Bmx(h)
T10 construct: purchased Eurofins KinaseProfiler
T10 sequence (P51813 1-675): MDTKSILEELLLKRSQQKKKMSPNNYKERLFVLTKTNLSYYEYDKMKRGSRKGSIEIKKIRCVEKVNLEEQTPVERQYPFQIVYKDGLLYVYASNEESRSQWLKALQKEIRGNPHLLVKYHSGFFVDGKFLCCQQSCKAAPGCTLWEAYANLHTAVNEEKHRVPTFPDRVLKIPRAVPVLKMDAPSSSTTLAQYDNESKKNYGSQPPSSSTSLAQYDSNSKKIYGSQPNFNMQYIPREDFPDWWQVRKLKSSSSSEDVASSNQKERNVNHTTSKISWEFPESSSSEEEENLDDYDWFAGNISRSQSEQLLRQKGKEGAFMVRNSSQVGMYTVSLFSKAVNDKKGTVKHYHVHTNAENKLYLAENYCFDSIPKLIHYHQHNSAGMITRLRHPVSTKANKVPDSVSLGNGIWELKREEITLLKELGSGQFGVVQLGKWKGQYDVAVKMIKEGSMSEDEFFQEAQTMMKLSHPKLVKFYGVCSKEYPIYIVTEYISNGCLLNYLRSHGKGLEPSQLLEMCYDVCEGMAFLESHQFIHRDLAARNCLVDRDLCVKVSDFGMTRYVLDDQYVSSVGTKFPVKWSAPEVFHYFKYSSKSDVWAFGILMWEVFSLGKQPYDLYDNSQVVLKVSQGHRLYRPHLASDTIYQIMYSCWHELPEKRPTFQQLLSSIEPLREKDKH
Outline: as §1

cKit(h) = target: T11, cKit(h) (Homo sapiens, UniProt P10721); details: read-out: residual kinase activity cKit(h)
T11 construct: purchased Eurofins KinaseProfiler
Outline: as §1

IR(h) = target: T12, IR(h) (Homo sapiens, UniProt P06213); details: read-out: residual kinase activity IR(h)
T12 construct: purchased Eurofins KinaseProfiler
Outline: as §1

Flt1(h) = target: T13, Flt1(h) (Homo sapiens, UniProt P17948); details: read-out: residual kinase activity Flt1(h)
T13 construct: purchased Eurofins KinaseProfiler
Outline: as §1

Blk(h) = target: T14, Blk(h) (Homo sapiens, UniProt P51451); details: read-out: residual kinase activity Blk(h)
T14 construct: purchased Eurofins KinaseProfiler
Outline: as §1

T11 sequence (P10721 26-976): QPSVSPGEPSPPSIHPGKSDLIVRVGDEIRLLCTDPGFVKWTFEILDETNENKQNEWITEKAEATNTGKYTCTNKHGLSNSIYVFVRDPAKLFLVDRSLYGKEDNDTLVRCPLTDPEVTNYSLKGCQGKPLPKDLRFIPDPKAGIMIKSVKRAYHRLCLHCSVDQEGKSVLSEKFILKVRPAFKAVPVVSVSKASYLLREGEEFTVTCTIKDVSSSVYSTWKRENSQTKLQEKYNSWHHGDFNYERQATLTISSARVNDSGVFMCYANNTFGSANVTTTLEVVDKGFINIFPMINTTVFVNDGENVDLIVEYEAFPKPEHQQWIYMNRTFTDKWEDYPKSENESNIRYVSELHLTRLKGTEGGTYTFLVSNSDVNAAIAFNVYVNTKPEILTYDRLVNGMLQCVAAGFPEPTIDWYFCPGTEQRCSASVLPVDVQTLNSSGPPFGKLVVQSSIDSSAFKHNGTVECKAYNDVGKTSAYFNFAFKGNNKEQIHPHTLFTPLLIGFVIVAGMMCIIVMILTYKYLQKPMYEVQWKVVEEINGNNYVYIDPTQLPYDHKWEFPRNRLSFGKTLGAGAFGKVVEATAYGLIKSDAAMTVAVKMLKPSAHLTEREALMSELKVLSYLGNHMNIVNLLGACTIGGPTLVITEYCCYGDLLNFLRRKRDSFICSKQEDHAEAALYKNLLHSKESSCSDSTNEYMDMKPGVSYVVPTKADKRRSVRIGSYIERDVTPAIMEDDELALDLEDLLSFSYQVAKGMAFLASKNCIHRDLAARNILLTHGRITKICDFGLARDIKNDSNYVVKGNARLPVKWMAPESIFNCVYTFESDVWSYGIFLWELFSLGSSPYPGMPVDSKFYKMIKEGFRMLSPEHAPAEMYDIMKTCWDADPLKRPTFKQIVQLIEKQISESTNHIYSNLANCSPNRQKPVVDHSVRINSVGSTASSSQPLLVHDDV
T12 sequence (P06213 28-1382): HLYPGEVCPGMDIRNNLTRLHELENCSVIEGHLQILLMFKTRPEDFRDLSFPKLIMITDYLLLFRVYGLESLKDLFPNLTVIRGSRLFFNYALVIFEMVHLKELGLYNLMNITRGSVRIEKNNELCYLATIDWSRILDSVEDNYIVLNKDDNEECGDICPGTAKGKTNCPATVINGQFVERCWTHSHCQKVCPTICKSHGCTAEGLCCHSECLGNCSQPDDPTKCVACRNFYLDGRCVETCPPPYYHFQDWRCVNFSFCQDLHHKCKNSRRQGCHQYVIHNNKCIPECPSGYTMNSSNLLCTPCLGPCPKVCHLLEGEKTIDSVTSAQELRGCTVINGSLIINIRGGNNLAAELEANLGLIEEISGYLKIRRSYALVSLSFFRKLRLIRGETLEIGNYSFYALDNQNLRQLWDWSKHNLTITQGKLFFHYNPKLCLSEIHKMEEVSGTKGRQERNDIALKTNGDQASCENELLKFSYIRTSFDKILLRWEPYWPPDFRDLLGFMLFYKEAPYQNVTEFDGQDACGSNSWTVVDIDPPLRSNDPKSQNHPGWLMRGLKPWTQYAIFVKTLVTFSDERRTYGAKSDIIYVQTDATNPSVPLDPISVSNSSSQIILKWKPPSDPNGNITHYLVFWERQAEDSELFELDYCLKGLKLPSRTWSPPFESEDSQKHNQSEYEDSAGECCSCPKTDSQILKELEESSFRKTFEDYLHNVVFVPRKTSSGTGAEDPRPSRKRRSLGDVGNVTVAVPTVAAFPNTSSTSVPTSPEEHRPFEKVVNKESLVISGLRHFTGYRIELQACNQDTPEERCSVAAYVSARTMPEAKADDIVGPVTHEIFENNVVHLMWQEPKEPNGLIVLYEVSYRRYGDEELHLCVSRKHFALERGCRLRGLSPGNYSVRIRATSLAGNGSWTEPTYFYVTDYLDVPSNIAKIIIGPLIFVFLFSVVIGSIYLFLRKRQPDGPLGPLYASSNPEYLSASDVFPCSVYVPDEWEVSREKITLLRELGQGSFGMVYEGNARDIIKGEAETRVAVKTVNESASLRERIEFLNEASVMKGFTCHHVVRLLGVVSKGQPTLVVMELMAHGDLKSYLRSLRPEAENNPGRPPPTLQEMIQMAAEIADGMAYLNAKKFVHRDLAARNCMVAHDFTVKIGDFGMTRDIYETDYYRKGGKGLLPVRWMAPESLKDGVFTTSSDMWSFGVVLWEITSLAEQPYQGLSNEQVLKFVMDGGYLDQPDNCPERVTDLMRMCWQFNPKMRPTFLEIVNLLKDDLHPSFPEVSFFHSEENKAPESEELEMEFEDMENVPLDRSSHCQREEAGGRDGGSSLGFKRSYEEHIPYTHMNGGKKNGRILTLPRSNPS
T1 sequence (Q02763 23-1124): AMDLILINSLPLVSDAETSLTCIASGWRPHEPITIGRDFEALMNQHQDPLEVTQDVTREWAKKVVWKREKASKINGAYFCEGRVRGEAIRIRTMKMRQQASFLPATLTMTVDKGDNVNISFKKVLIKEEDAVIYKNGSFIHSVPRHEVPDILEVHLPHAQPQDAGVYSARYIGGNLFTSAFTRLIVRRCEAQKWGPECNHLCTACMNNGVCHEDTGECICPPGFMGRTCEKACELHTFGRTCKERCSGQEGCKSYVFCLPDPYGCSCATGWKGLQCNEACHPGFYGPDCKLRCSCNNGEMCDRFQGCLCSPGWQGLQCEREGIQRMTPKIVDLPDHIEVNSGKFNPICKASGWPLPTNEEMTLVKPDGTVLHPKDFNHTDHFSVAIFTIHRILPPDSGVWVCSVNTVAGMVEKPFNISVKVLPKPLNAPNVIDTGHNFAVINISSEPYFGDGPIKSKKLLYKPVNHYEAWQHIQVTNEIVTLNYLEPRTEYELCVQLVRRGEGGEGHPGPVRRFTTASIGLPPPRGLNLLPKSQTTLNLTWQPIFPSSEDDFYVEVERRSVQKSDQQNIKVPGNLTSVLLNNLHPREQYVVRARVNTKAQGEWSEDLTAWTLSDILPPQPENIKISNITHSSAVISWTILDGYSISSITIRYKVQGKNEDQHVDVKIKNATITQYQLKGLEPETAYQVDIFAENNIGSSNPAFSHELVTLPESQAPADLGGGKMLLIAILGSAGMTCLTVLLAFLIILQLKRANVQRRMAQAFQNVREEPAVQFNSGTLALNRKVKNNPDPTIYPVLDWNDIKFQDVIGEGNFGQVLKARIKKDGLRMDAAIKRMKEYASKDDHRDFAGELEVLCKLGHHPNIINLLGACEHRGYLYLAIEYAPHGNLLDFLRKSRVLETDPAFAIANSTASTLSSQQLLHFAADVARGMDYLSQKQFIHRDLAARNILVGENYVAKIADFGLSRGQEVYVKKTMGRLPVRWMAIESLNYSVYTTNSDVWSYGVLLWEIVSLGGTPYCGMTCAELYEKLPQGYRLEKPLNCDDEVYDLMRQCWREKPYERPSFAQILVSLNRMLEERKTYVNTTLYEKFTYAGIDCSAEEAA
T14 sequence (P51451 whole entry): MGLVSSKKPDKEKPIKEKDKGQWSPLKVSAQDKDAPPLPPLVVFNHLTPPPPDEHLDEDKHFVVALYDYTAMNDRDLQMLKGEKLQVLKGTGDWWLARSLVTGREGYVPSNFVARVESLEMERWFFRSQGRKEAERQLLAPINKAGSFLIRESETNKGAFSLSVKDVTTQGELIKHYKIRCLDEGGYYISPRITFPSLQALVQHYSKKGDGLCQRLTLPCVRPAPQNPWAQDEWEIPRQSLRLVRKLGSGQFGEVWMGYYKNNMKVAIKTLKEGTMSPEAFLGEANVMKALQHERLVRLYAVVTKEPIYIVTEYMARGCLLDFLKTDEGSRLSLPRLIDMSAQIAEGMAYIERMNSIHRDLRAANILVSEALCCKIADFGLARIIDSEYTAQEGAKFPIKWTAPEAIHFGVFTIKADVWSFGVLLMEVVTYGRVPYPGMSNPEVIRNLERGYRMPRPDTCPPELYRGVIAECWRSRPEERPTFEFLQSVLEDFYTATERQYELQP
T7 sequence (Q02750 whole entry): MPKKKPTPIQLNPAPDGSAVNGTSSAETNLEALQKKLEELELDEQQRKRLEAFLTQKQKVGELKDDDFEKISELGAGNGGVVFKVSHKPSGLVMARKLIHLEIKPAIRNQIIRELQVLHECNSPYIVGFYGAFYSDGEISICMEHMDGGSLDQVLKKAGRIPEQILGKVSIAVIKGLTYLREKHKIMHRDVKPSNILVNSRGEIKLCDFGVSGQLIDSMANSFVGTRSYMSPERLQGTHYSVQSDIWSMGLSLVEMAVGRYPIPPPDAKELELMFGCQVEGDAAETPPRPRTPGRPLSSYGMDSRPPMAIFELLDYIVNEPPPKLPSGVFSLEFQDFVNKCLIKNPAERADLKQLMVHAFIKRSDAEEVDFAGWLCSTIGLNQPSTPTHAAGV
T6 sequence (Q00535 whole entry): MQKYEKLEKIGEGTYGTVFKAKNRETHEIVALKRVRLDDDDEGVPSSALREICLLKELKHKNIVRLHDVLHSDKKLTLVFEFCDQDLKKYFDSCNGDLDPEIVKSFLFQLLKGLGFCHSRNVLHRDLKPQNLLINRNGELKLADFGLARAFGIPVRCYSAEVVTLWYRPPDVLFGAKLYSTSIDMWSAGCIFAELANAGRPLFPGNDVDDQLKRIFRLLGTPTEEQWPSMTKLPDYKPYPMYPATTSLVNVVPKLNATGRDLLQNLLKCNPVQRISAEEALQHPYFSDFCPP
T6 sequence (Q15078 whole entry partner): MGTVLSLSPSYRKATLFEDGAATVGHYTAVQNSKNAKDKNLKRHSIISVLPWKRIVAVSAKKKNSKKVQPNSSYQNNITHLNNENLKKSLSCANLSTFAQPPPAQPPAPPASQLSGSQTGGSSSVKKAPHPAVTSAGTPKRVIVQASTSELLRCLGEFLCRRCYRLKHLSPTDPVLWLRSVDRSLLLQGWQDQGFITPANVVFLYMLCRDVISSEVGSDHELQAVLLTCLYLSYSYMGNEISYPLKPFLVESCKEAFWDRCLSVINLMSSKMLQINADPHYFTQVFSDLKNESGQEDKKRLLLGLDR

remaining activity at 1 µM (Tie2 (h))	remaining activity at 1 µM (ALK(h))	remaining activity at 1 µM (Lck(h))	remaining activity at 1 µM (TrkA(h))	remaining activity at 1 µM (B-Raf(h))	remaining activity at 1 µM (CDK5/p35(h))	remaining activity at 1 µM (MEK1(h))	remaining activity at 1 µM (ATM(h))	remaining activity at 1 µM (PKC μ(h))	remaining activity at 1 µM (Bmx(h))	remaining activity at 1 µM (cKit(h))	remaining activity at 1 µM (IR(h))	remaining activity at 1 µM (Flt1(h))	remaining activity at 1 µM (Blk(h))	Compound	inhibition at 1 µM (ALK(h))
108%	73%	110%	103%	99%	94%	101%	94%	109%	105%	93%	105%	94%	117%	CONC(=O)c1ccccc1Nc1cc(Nc2cc(C)nn2C(C)C)ncc1Cl [GSK2256098]	
82%	96%	30%	2%	83%	10%	93%	63%	100%	47%	80%	62%	21%	62%	CNC(=O)c1ccc(Nc2ncc(C(F)(F)F)c(NCc3nccnc3N(C)S(C)(=O)=O)n2)cc1 [VS-6063, Defactinib]	

Compound	remaining activity at 1 µM (Tie2 (h))	remaining activity at 1 µM (ALK(h))	remaining activity at 1 µM (Lck(h))	remaining activity at 1 µM (TrkA(h))	remaining activity at 1 µM (B-Raf(h))	remaining activity at 1 µM (CDK5/p35(h))	remaining activity at 1 µM (MEK1(h))	remaining activity at 1 µM (ATM(h))	remaining activity at 1 µM (PKC μ(h))	remaining activity at 1 µM (Bmx(h))	remaining activity at 1 µM (cKit(h))	remaining activity at 1 µM (IR(h))	remaining activity at 1 µM (Flt1(h))	remaining activity at 1 µM (Blk(h))	inhibition at 1 µM (ALK(h))
CNC(=O)c1cccc(C)c1Nc1nc(Nc2ccc(N3CCN(C4C5CC6CC4CC(O)(C6)C5)CC3)cc2OC)ncc1C(F)(F)F (stereo not shown) [SJP1602, 2-((2-((4-(4-((2s,5r)-5-hydroxyadamantan-2-yl)piperazin-1-yl)-2-methoxyphenyl)amino)-5-(trifluoromethyl)pyrimidin-4-yl)amino)-N,3-dimethylbenzamide]	105%	28%	63%	109%	93%	84%	98%	98%	113%	84%	97%	103%	106%	85%	72%
